From US11021493B2, “1,4-thiazine dioxide and 1,2,4-thiadiazine dioxide derivatives as beta-secretase inhibitors and methods of use” (AMGEN INC., priority 2016, dated 2021) come the findings set out here.

One test deals with Cathepsin D (CatD) (Homo sapiens (Human), UniProt P07339). The experiment in a line: In vitro enzymatic Cathepsin D (CatD) FRET assay. The test is classed as biochemical. To be noted: read-out: Cat D Enzyme IC50.
Test [1] addresses T1, BACE1 (Homo sapiens (Human), UniProt P56817). The experiment in a line: In vitro BACE1 cell-based assay (Aβ40 in conditioned medium of cells stably expressing APP, HTRF). The note with it: Aβ40 in conditioned media after 24 h incubation.
Target sequence in this assay (P56817 46-501, species assumed): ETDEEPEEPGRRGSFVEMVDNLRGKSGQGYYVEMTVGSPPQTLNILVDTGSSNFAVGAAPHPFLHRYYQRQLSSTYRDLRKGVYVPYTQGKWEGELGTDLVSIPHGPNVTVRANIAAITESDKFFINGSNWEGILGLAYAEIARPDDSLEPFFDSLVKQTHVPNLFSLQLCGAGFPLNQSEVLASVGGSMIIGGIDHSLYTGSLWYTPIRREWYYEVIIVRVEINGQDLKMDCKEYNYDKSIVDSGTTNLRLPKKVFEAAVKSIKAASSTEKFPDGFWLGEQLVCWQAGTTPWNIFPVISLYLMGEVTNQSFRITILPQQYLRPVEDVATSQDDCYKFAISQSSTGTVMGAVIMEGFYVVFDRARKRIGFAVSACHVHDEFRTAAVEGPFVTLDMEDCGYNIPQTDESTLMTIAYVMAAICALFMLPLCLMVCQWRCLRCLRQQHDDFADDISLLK
In test [2] the target is T1, BACE1. Description: In vitro enzymatic BACE1 FRET assay. Type of test: biochemical. The note with it: read-out: BACE1 Enzyme IC50.
Target sequence in this assay (P56817 46-501): as the sequence (P56817 46-501, species assumed) above
Another test has as its target human recombinant BACE2 (Homo sapiens (Human), UniProt Q9Y5Z0). Description: In vitro enzymatic BACE2 FRET assay. Type of test: biochemical. To be noted: read-out: BACE2 Enzyme IC50.

Chain of Cathepsin D (CatD) (P07339 65-412, species assumed): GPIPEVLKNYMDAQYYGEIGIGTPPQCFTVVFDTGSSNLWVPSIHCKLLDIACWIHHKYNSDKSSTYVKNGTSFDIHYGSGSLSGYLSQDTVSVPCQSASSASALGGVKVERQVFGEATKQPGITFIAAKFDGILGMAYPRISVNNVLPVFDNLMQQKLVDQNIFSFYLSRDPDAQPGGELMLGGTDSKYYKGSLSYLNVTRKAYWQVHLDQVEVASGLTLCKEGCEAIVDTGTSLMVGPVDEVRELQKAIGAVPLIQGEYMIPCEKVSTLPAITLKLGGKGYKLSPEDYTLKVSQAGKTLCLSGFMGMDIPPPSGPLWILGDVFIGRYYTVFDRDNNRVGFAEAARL
Chain of human recombinant BACE2 (Q9Y5Z0 63-518): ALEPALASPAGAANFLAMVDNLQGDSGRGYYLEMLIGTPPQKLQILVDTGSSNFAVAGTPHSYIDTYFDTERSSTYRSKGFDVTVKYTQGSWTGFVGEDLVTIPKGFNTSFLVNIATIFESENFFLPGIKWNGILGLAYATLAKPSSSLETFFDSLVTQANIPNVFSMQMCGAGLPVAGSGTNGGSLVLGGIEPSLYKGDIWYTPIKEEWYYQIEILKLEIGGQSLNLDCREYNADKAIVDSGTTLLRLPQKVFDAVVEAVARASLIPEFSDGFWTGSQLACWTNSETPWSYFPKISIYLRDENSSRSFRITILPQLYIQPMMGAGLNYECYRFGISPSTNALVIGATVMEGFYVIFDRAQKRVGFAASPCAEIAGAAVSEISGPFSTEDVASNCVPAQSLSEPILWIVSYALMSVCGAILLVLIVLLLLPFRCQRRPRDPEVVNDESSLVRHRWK

With `CC1(C)C(N)=N[C@](C)(c2cc(/C=C(\F)c3cnc(OCC(F)(F)C(F)F)cn3)ccc2F)CS1(=O)=O` [Example 141, (R,Z)-5-amino-3-(2-fluoro-5-(2-fluoro-2-(5-(2,2,3,3-tetrafluoropropoxy)pyrazin-2-yl)vinyl)phenyl)-3,6,6-trimethyl-3,6-dihydro-2H-1,4-thiazine 1,1-dioxide], the IC50 at Cathepsin D (CatD) was 96200 nM; against BACE1 [1], 229 nM; on BACE1 [2], 55 nM; on human recombinant BACE2, 330 nM.
The like results for `CC1(C)C(N)=N[C@](C)(c2cc(/C=C(\F)c3cnc(OCCC(F)(F)F)cn3)ccc2F)CS1(=O)=O` [Example 142, (R,Z)-5-amino-3-(2-fluoro-5-(2-fluoro-2-(5-(3,3,3-trifluoropropoxy)pyrazin-2-yl)vinyl)phenyl)-3,6,6-trimethyl-3,6-dihydro-2H-1,4-thiazine 1,1-dioxide] were, in that order, 90500 nM, 739 nM, 193 nM and 425 nM.
Take `CN1C(N)=N[C@](C)(c2cc(/C=C(\F)c3cnc(OCC4CC4)cn3)ccc2F)CS1(=O)=O` [Example 143, (R,Z)-3-amino-5-(5-(2-(5-(cyclopropylmethoxy)pyrazin-2-yl)-2-fluorovinyl)-2-fluorophenyl)-2,5-dimethyl-5,6-dihydro-2H-1,2,4-thiadiazine 1,1-dioxide]: the concentration for half-maximal inhibition (IC50) amounted to 30500 nM on Cathepsin D (CatD), 380 nM against BACE1 [1], 44 nM at BACE1 [2] and 222 nM on human recombinant BACE2.
Consider `CC1(C)C(N)=N[C@](C)(c2cc(/C=C(\F)c3cnc(OCC4CCCC4)cn3)ccc2F)CS1(=O)=O` [Example 144, (R,Z)-5-amino-3-(5-(2-(5-(cyclopentylmethoxy)pyrazin-2-yl)-2-fluorovinyl)-2-fluorophenyl)-3,6,6-trimethyl-3,6-dihydro-2H-1,4-thiazine 1,1-dioxide], for which the IC50 at Cathepsin D (CatD) was 17000 nM; against BACE1 [1] it was 1070 nM; on BACE1 [2] it was 30 nM; on human recombinant BACE2, 143 nM.
As to `CC1(C)C(N)=N[C@](C)(c2cc(/C=C(\F)c3cnc(OCC4CCC4)cn3)ccc2F)CS1(=O)=O` [Example 145, (R,Z)-5-amino-3-(5-(2-(5-(cyclobutylmethoxy)pyrazin-2-yl)-2-fluorovinyl)-2-fluorophenyl)-3,6,6-trimethyl-3,6-dihydro-2H-1,4-thiazine 1,1-dioxide], the IC50 amounted to 27500 nM at Cathepsin D (CatD), 518 nM at BACE1 [1], 58 nM at BACE1 [2] and 107 nM at human recombinant BACE2.
Consider `CN1C(N)=N[C@](C)(c2cc(/C=C(\F)c3cnc(C#N)cn3)ccc2F)C2(CC2)S1(=O)=O` [Example 147, (R,Z)-5-(2-(3-(6-amino-5,8-dimethyl-4,4-dioxido-4-thia-5,7-diazaspiro[2.5]oct-6-en-8-yl)-4-fluorophenyl)-1-fluorovinyl)pyrazine-2-carbonitrile], for which the half-maximal inhibitory concentration (IC50) on Cathepsin D (CatD) was found to be 41100 nM; against BACE1 [1] it was 15 nM; on BACE1 [2], 6 nM; on human recombinant BACE2, 184 nM.
Regarding `CN1C(N)=N[C@](C)(c2cc(/C=C(\F)c3cnc(OCC(F)(F)C(F)F)cn3)ccc2F)CS1(=O)=O` [Example 148, (R,Z)-3-amino-5-(2-fluoro-5-(2-fluoro-2-(5-(2,2,3,3-tetrafluoropropoxy)pyrazin-2-yl)vinyl)phenyl)-2,5-dimethyl-5,6-dihydro-2H-1,2,4-thiadiazine 1,1-dioxide], the IC50 is 25300 nM at Cathepsin D (CatD), 88 nM at BACE1 [1], 18 nM on BACE1 [2] and 217 nM on human recombinant BACE2.
The like results for `C#CCOc1cnc(/C(F)=C/c2ccc(F)c([C@]3(C)CS(=O)(=O)C4(CCC4)C(N)=N3)c2)cn1` [Example 149, (R,Z)-9-amino-7-(2-fluoro-5-(2-fluoro-2-(5-(prop-2-yn-1-yloxy)pyrazin-2-yl)vinyl)phenyl)-7-methyl-5-thia-8-azaspiro[3.5]non-8-ene 5,5-dioxide] were, in that order, 110000 nM, 3 nM, 2 nM and 51 nM.
As for `CC1(C)C(N)=N[C@](C)(c2cc(/C=C(\F)c3cnc(OCC4CCCCC4)cn3)ccc2F)CS1(=O)=O` [Example 150, (R,Z)-5-amino-3-(5-(2-(5-(cyclohexylmethoxy)pyrazin-2-yl)-2-fluorovinyl)-2-fluorophenyl)-3,6,6-trimethyl-3,6-dihydro-2H-1,4-thiazine 1,1-dioxide], the IC50 was found to be 13800 nM at Cathepsin D (CatD), 1620 nM against BACE1 [1], 46 nM at BACE1 [2] and 155 nM at human recombinant BACE2.
As to `CN1C(N)=N[C@](C)(c2cc(/C=C(/F)c3ccc(Cl)cn3)cc(F)c2F)CS1(=O)=O` [Example 151, (R,E)-3-amino-5-(5-(2-(5-chloropyridin-2-yl)-2-fluorovinyl)-2,3-difluorophenyl)-2,5-dimethyl-5,6-dihydro-2H-1,2,4-thiadiazine 1,1-dioxide], the IC50 came out at 40900 nM at Cathepsin D (CatD), 1420 nM against BACE1 [1], 240 nM on BACE1 [2] and 121 nM at human recombinant BACE2.
Turning to `CN1C(N)=N[C@](C)(c2cc(/C=C(\F)c3ccc(Cl)cn3)cc(F)c2F)CS1(=O)=O` [Example 152, (R,Z)-3-amino-5-(5-(2-(5-chloropyridin-2-yl)-2-fluorovinyl)-2,3-difluorophenyl)-2,5-dimethyl-5,6-dihydro-2H-1,2,4-thiadiazine 1,1-dioxide], the IC50 on Cathepsin D (CatD) worked out at 48800 nM; against BACE1 [1], 47 nM; on BACE1 [2], 15 nM; on human recombinant BACE2 it was 6 nM.
The like results for `CC(C)(C#N)COc1cnc(/C(F)=C/c2ccc(F)c([C@]3(C)CS(=O)(=O)C(C)(C)C(N)=N3)c2)cn1` [Example 153, (R,Z)-3-((5-(2-(3-(5-amino-3,6,6-trimethyl-1,1-dioxido-3,6-dihydro-2H-1,4-thiazin-3-yl)-4-fluorophenyl)-1-fluorovinyl)pyrazin-2-yl)oxy)-2,2-dimethylpropanenitrile] were, in that order, 249000 nM, 2180 nM, 636 nM and 1060 nM.
On to `CC#CCOc1cnc(/C(F)=C/c2ccc(F)c([C@]3(C)CS(=O)(=O)C(C)(C)C(N)=N3)c2)cn1` [Example 154, (R,Z)-5-amino-3-(5-(2-(5-(but-2-yn-1-yloxy)pyrazin-2-yl)-2-fluorovinyl)-2-fluorophenyl)-3,6,6-trimethyl-3,6-dihydro-2H-1,4-thiazine 1,1-dioxide], for which the IC50 at Cathepsin D (CatD) amounted to 109000 nM; against BACE1 [1] it was 2 nM; at BACE1 [2], 1 nM; at human recombinant BACE2 it was 34 nM.
The like results for `CC1(C)C(N)=N[C@](C)(c2cc(/C=C(\F)c3cnc(OCCn4ccnc4)cn3)ccc2F)CS1(=O)=O` [Example 155, (R,Z)-3-(5-(2-(5-(2-(1H-imidazol-1-yl)ethoxy)pyrazin-2-yl)-2-fluorovinyl)-2-fluorophenyl)-5-amino-3,6,6-trimethyl-3,6-dihydro-2H-1,4-thiazine 1,1-dioxide] were, in that order, 440000 nM, 985 nM, 5140 nM and 2390 nM.
For `CC1(C)C(N)=N[C@](C)(c2cc(/C=C(\F)c3cnc(OCCn4cc(Br)cn4)cn3)ccc2F)CS1(=O)=O` [Example 156, (R,Z)-5-amino-3-(5-(2-(5-(2-(4-bromo-1H-pyrazol-1-yl)ethoxy)pyrazin-2-yl)-2-fluorovinyl)-2-fluorophenyl)-3,6,6-trimethyl-3,6-dihydro-2H-1,4-thiazine 1,1-dioxide] the same measures were 90500 nM, 1320 nM, 96 nM and 671 nM.
As for `CC1(C)C(N)=N[C@](C)(c2cc(/C=C(\F)c3cnc(OCCn4cccn4)cn3)ccc2F)CS1(=O)=O` [Example 157, (R,Z)-3-(5-(2-(5-(2-(1H-pyrazol-1-yl)ethoxy)pyrazin-2-yl)-2-fluorovinyl)-2-fluorophenyl)-5-amino-3,6,6-trimethyl-3,6-dihydro-2H-1,4-thiazine 1,1-dioxide], the IC50 was 57500 nM on Cathepsin D (CatD), 181 nM against BACE1 [1], 187 nM at BACE1 [2] and 478 nM at human recombinant BACE2.
Regarding `Cc1noc(COc2cnc(/C(F)=C/c3ccc(F)c([C@@]4(C)N=C(N)N(C)S(=O)(=O)C45CC5)c3)cn2)n1` [Example 161, (8R)-8-(2-fluoro-5-((Z)-2-fluoro-2-(5-((3-methyl-1,2,4-oxadiazol-5-yl)methoxy)-2-pyrazinyl)ethenyl)phenyl)-5,8-dimethyl-4-thia-5,7-diazaspiro[2.5]oct-6-en-6-amine 4,4-dioxide], the 50% inhibitory concentration (IC50) at Cathepsin D (CatD) stood at 59600 nM; at BACE1 [1], 48 nM; at BACE1 [2], 80 nM; on human recombinant BACE2, 2630 nM.
The like results for `Cc1cc(COc2cnc(/C(F)=C/c3ccc(F)c([C@@]4(C)N=C(N)N(C)S(=O)(=O)C45CC5)c3)cn2)no1` [Example 162, (8R)-8-(2-fluoro-5-((Z)-2-fluoro-2-(5-((5-methyl-3-isoxazolyl)methoxy)-2-pyrazinyl)ethenyl)phenyl)-5,8-dimethyl-4-thia-5,7-diazaspiro[2.5]oct-6-en-6-amine 4,4-dioxide] were, in that order, 15700 nM, 168 nM, 65 nM and 732 nM.
The like results for `CN1C(N)=N[C@](C)(c2cc(/C=C(\F)c3cnc(OCC(F)(F)F)cn3)ccc2F)C2(CC2)S1(=O)=O` [Example 163, (8R)-8-(2-fluoro-5-((Z)-2-fluoro-2-(5-(2,2,2-trifluoroethoxy)-2-pyrazinyl)ethenyl)phenyl)-5,8-dimethyl-4-thia-5,7-diazaspiro[2.5]oct-6-en-6-amine 4,4-dioxide] were, in that order, 223000 nM, 1120 nM, 133 nM and 2880 nM.
